In PubChem BioAssay (NCI):
Where “and” joins values, the source holds several entries; their conditions need not be identical. Equal entries are not always repeated.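 How tested: cells in 96-well plates exposed to compound for 48 hours at five concentrations. GI50 = concentration required for 50% inhibition of growth. TGI: concentration producing complete growth inhibition.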

Key:
Assay in all cases: NCI tumour cell line growth inhibition, 48 h
SF-539 CNS = tested on: SF-539 CNS
SK-MEL-2 melanoma = tested on: SK-MEL-2 melanoma
RPMI-8226 leukemia = tested on: RPMI-8226 leukemia
P388/ADR leukemia = tested on: P388/ADR leukemia
UACC-62 melanoma = tested on: UACC-62 melanoma
SNB-19 CNS = tested on: SNB-19 CNS
SK-OV-3 ovarian = tested on: SK-OV-3 ovarian
MCF7 breast = tested on: MCF7 breast
SW-620 colon = tested on: SW-620 colon
NCI-H226 lung = tested on: NCI-H226 lung
ACHN renal = tested on: ACHN renal
786-0 renal = tested on: 786-0 renal
A498 renal = tested on: A498 renal
KM20L2 colon = tested on: KM20L2 colon
HT29 colon = tested on: HT29 colon
HOP-18 NSCLC = tested on: HOP-18 NSCLC
SNB-75 CNS = tested on: SNB-75 CNS
IGROV1 ovarian = tested on: IGROV1 ovarian
HCC-2998 colon = tested on: HCC-2998 colon
HOP-92 NSCLC = tested on: HOP-92 NSCLC
SNB-78 CNS = tested on: SNB-78 CNS
HOP-62 NSCLC = tested on: HOP-62 NSCLC
DMS 114 small cell lung = tested on: DMS 114 small cell lung
K-562 leukemia = tested on: K-562 leukemia
LOX IMVI melanoma = tested on: LOX IMVI melanoma
T-47D breast = tested on: T-47D breast
A549 NSCLC = tested on: A549 NSCLC
M19-MEL melanoma = tested on: M19-MEL melanoma
OVCAR-5 ovarian = tested on: OVCAR-5 ovarian
COLO 205 colon = tested on: COLO 205 colon
U251 CNS = tested on: U251 CNS
RXF 393 renal = tested on: RXF 393 renal
CAKI-1 renal = tested on: CAKI-1 renal
UO-31 renal = tested on: UO-31 renal
M14 melanoma = tested on: M14 melanoma
DLD-1 colon = tested on: DLD-1 colon
MDA-MB-231 breast = tested on: MDA-MB-231 breast
NCI-H522 lung = tested on: NCI-H522 lung
UACC-257 melanoma = tested on: UACC-257 melanoma
SN12K1 renal = tested on: SN12K1 renal
NCI-H460 lung = tested on: NCI-H460 lung
SR leukemia = tested on: SR leukemia
PC-3 prostate = tested on: PC-3 prostate
DMS 273 small cell lung = tested on: DMS 273 small cell lung
OVCAR-4 ovarian = tested on: OVCAR-4 ovarian
SF-268 CNS = tested on: SF-268 CNS
MDA-MB-435 = tested on: MDA-MB-435
OVCAR-3 ovarian = tested on: OVCAR-3 ovarian
CCRF-CEM leukemia = tested on: CCRF-CEM leukemia
P388 leukemia = tested on: P388 leukemia
KM12 colon = tested on: KM12 colon
TK-10 renal = tested on: TK-10 renal
XF 498 CNS = tested on: XF 498 CNS
SF-295 CNS = tested on: SF-295 CNS
SN12C renal = tested on: SN12C renal
SK-MEL-5 melanoma = tested on: SK-MEL-5 melanoma
HCT-116 colon = tested on: HCT-116 colon
HL-60(TB) leukemia = tested on: HL-60(TB) leukemia
HCT-15 colon = tested on: HCT-15 colon
MOLT-4 leukemia = tested on: MOLT-4 leukemia

## COc1cc([C@@H]2c3cc4c(c(O)c3C[C@H]3COC(=O)[C@@H]32)OCO4)cc(OC)c1OC
SF-539 CNS
  GI50: 65 nM
SK-MEL-2 melanoma
  GI50: 1020 nM
RPMI-8226 leukemia
  TGI: 27400 nM and > 241000 nM
P388/ADR leukemia
  TGI: 35100 nM
UACC-62 melanoma
  GI50: 144 nM
SNB-19 CNS
  GI50: 114 nM
SK-OV-3 ovarian
  GI50: 183 nM
MCF7 breast
  GI50: 34.9 nM
SW-620 colon
  GI50: 123 nM
NCI-H226 lung
  GI50: 364 nM
  TGI: 150000 nM and 19600 nM
ACHN renal
  GI50: 1430 nM
  TGI: 121000 nM and > 100000 nM
786-0 renal
  TGI: 46800 nM and > 100000 nM
A498 renal
  TGI: > 100000 nM
KM20L2 colon
  TGI: 522 nM
HT29 colon
  GI50: 1180 nM
HOP-18 NSCLC
  TGI: 61900 nM
SNB-75 CNS
  GI50: 20.3 nM
IGROV1 ovarian
  GI50: 72.8 nM
HCC-2998 colon
  GI50: < 24.1 nM and 241 nM
HOP-92 NSCLC
  GI50: 8170 nM
SNB-78 CNS
  GI50: 0.011 nM
HOP-62 NSCLC
  GI50: 249 nM
  TGI: 57900 nM and 218000 nM and > 100000 nM
DMS 114 small cell lung
  TGI: 1500 nM
K-562 leukemia
  GI50: 141 nM
LOX IMVI melanoma
  GI50: 334 nM
T-47D breast
  GI50: 324 nM
  TGI: > 231000 nM
A549 NSCLC
  GI50: 274 nM
M19-MEL melanoma
  GI50: 0.137 nM
OVCAR-5 ovarian
  GI50: 725 nM
  TGI: 150000 nM and > 241000 nM and > 100000 nM
COLO 205 colon
  GI50: 239 nM
U251 CNS
  GI50: 183 nM
  TGI: > 100000 nM
RXF 393 renal
  GI50: 281 nM
CAKI-1 renal
  GI50: 222 nM
UO-31 renal
  GI50: 466 nM
  TGI: 56200 nM and 120000 nM and > 100000 nM
M14 melanoma
  TGI: > 122000 nM
DLD-1 colon
  GI50: 0.0646 nM
MDA-MB-231 breast
  GI50: 392 nM
  TGI: > 100000 nM
NCI-H522 lung
  GI50: 393 nM
UACC-257 melanoma
  GI50: > 100000 nM
SN12K1 renal
  GI50: 0.0526 nM
  TGI: 0.207 nM
NCI-H460 lung
  GI50: 56.4 nM
SR leukemia
  GI50: 1460 nM and 812 nM
PC-3 prostate
  GI50: 42.8 nM and 161 nM
  TGI: > 241000 nM
DMS 273 small cell lung
  TGI: 1500 nM
OVCAR-4 ovarian
  GI50: 2300 nM
SF-268 CNS
  GI50: 501 nM
MDA-MB-435
  GI50: 0.192 nM
  TGI: 0.802 nM
OVCAR-3 ovarian
  GI50: 89 nM
CCRF-CEM leukemia
  GI50: 374 nM
  TGI: 94300 nM and > 241000 nM and > 100000 nM
P388 leukemia
  TGI: 551 nM
KM12 colon
  GI50: 104 nM
TK-10 renal
  GI50: 505 nM
  TGI: 37500 nM and 167000 nM and > 100000 nM
XF 498 CNS
  TGI: 88.7 nM
SF-295 CNS
  GI50: 109 nM
SN12C renal
  GI50: 581 nM
SK-MEL-5 melanoma
  GI50: 40.7 nM
HCT-116 colon
  GI50: 58.9 nM
HL-60(TB) leukemia
  GI50: 582 nM
HCT-15 colon
  GI50: 190 nM
MOLT-4 leukemia
  GI50: 539 nM
